The source of these data is the NIST ThermoML archive (doi:10.1016/j.tca.2017.07.003).

Numbers after ± are expanded uncertainties.

For the series the following is noted: Crystal; DTA.
With `CCCCNC(=O)c1cc(C(=O)NCCCC)cc(C(=O)NCCCC)c1` [N,N',N''-tributyl-1,3,5-benzenetricarboxamide], the Normal melting temperature came out at 229.00 ± 1 °C.

Consider `CC(C)CNC(=O)c1cc(C(=O)NCC(C)C)cc(C(=O)NCC(C)C)c1` [N,N',N''-tris(2-methylpropyl)-1,3,5-benzenetricarboxamide], for which the Normal melting temperature turned out to be 300.00 ± 1 °C.

`CC(C)(C)NC(=O)c1cc(C(=O)NC(C)(C)C)cc(C(=O)NC(C)(C)C)c1` [N,N',N''-tris(tert-butyl)-1,3,5-benzenetricarboxamide]: the Normal melting temperature was determined as 304.00 ± 1 °C.
